Assay [1] has as its system T2 lineages from 3404 transformations. The assay can be described thus: Quizalofop tolerance with respect to AAD1 (v3) expression in T2 3404 lineages. Type of assay: in vivo, corn.
Assay [2] concerns F1 progeny of ‘Crenshaw’ creeping bentgrass pDAB5042 events. The assay can be described thus: AAD1 whole-plant selectable marker: F1 progeny of Crenshaw pDAB5042 events x elite lines, injury to 240 g ae/ha quizalofop-p-ethyl. Type of assay: in vivo. How it is done: The use of AAD1 as a selectable marker for quizalofop selection agent was tested with an “F1” generation of plants that were produced by crossing selected single copy pDAB5042 ‘Crenshaw’ events with non-transgenic elite lines (lines 3425-12, 3427-2, or 3431-1). ‘Crenshaw’ events were vernalized in a growth chamber; elite line crossing partners were field vernalized. Nearing the time of bloom, a non-transgenic plant at the same reproductive stage was moved into the growth chamber in close proximity of the pDAB5042 event. Panicles were secured together with a twist tie, and both panicles were bagged together and labeled. Alternatively, to increase the number of crosses, some panicles were excised and secured to an intact panicle and bagged. At seed harvest, individual seed heads were removed and packaged individually.
Seed were sown on flats containing Metromix™, and germinated in a growth chamber. All emerged seedlings were transplanted into growth medium prepared by mixing Promix® and sand in a 2 to 1 ratio. The medium was contained in plastic pots with a surface area of 84.6 square centimeters (cm^2). Plants were maintained in a greenhouse until established. Leaf tissue from each seedling was harvested for molecular analysis, and tissues were probed for the presence of AAD1. After tissue harvest, the established plants were trimmed to simulate mowing.
The same two plants were the only plants testing positive for one copy of AAD1.

Assay [3] relates to Non-transformed Hi-II callused suspension tissue. The assay can be described thus: Dose response of non-transformed maize callus tissue. The format is cell-based. Particulars: haloxyfop 400 nM.
In assay [4] the test system is AAD2 (v1)-transformed T1 Arabidopsis. The assay is described as follows: T1 Arabidopsis response to postemergence herbicide, % visual injury 2 WAT: native AAD2 (v1) transformants. Type of assay: in vivo, Arabidopsis thaliana. Particulars: Native AAD2 gene. From the text:
Table 16. […] Response is presented in terms of % visual injury 2 WAT. […] Since each T1 is an independent transformation event, one can expect significant variation of individual T1 responses within a given rate. An arithmetic mean and standard deviation is presented for each treatment. The range in individual response is also indicated in the last column for each rate and transformation. PAT/Cry1F-transformed Arabidopsis served as an auxin-sensitive transformed control. Wildtype Arabidopsis is untransformed.
Freshly harvested T1 seed transformed with a native [AAD1 (v2)], plant optimized [AAD1 (v3)], or native AAD2 (v1) gene was allowed to dry for 7 days at room temperature. T1 seed was sown in 26.5×51-cm germination trays (T.O. Plastics Inc., Clearwater, Minn.), each receiving a 200 mg aliquots of stratified T1 seed (˜10,000 seed) that had previously been suspended in 40 ml of 0.1% agarose solution and stored at 4° C. for 2 days to complete dormancy requirements and ensure synchronous seed germination.
Sunshine Mix LP5 (Sun Gro Horticulture Inc., Bellevue, Wash.) was covered with fine vermiculite and subirrigated with Hoagland's solution until wet and then allowed to gravity drain. Each 40 ml aliquot of stratified seed was sown evenly onto the vermiculite with a pipette and covered with humidity domes (KORD Products, Bramalea, Ontario, Canada) for 4-5 days. Domes were removed 1 day prior to initial transformant selection using glufosinate postemergence spray (selecting for the co-transformed PAT gene).
Five to six days after planting (DAP) and again 10 DAP, T1 plants (cotyledon and 2-4-1f stage, respectively) were sprayed with a 0.2% solution of Liberty herbicide (200 g ai/L glufosinate, Bayer Crop Sciences, Kansas City, Mo.) at a spray volume of 10 ml/tray (703 L/ha) using a DeVilbiss compressed air spray tip to deliver an effective rate of 280 g ai/ha glufosinate per application. Survivors (plants actively growing) were identified 5-7 days after the final spraying and transplanted individually into 3-inch pots prepared with potting media (Metro Mix 360). Transplanted plants were covered with humidity domes for 3-4 days and placed in a 22° C. growth chamber as before. Domes were subsequently removed and plants moved to the greenhouse (22+5° C., 50+30% RH, 14 hours light:10 dark, minimum 500 μE/m^2s^1 natural+supplemental light) at least 1 day prior to testing for the ability of AAD1 (v3), AAD1 (v2), or AAD2 (v1) to provide phenoxy auxin herbicide resistance.
Random individual T1 plants selected for glufosinate resistance above were confirmed for expression of the PAT protein using a PAT ELISA kit (Part no. 7000045, Strategic Diagnostics, Inc., Newark, Del.) to non-destructively confirm fidelity of selection process (manufacturer's protocol).
Herbicide applications were applied by track sprayer in a 187 L/ha spray volume.

For assay [5], the system named is homozygous T4 lines of Arabidopsis. The assay can be described thus: 2,4-D injury and AAD1 (v3) expression in homozygous T4 Arabidopsis lines. The format is in vivo, Arabidopsis thaliana. Particulars: 800 g ae/ha and above; 14 DAT. How it is done:
An experiment was designed to examine if the level of AAD1 (v3) expression in Arabidopsis varies at different growth stages. A high-tolerance, homozygous, AAD1 (v3) T4 line (id=PAAD1.01.345.163) was grown in greenhouse. […] Two leaves, the 3rd leaf from the top and the 5th leaf from the bottom, were harvested from 5 plants, both treated and untreated, and analyzed by ELISA and Western Blotting (as described in Example 11) experiments at 4, 10, 14, 20 and 25 DAT. […] The protein levels accumulated in older plants with some significant protein degradation at the later time points.
These plants also expressed high level of AAD1 (v3), from 0.1 to 0.25% of (FIG. 9B). On the contrary, the low tolerance line expressed less than 0.1% of AAD1 (v3) in TSP and suffered observable injury.

The structures appear in SMILES notation. Where “and” joins values, the source holds several entries; their conditions need not be identical. Identical values can stand only once.

In the case of `C[C@@H](Oc1ccc(Oc2cnc3cc(Cl)ccc3n2)cc1)C(=O)O` [quizalofop], the “highest level tested at which corn expressing AAD1 (v3) is protected from injury” value in assay [1] is on record as 2,240 g/ha.

Regarding `CCOC(=O)[C@@H](C)Oc1ccc(Oc2cnc3cc(Cl)ccc3n2)cc1` [quizalofop-p-ethyl], the “Visual Injury 39 DAA” value in assay [2] (F1 progeny of 3431-1 × pDAB5042 Event 162) is 100%; in assay [2] (F1 progeny of NT6 × pDAB5042 Event 186), 95%; in assay [2] (individual F1 progeny of 3427-2 × pDAB5042 Event 186), 60% and 80% and 95% (4×) and 90% and 99% (3×) and 85% and 100% (2×); in assay [2] (individual F1 progeny of 3431-1 × pDAB5042 Event 127), 90% (4×) and 95% (4×) and 100% (6×) and 99%; in assay [2] (individual F1 progeny of 3431-1 × pDAB5042 Event 186) it was 100% (6×) and 99% (10×) and 95% (8×) and 80% (2×) and 90%; in assay [2] (individual F1 progeny of pDAB5042 Event 127 × 3431-1) it was 99% (3×) and 95%. In addition, the “Visual Injury 39 DAA” value in assay [2] (individual F1 progeny of pDAB5042 Event 144 × 3425-12) is 99% and 100%; in assay [2] (individual F1 progeny of pDAB5042 Event 186 × 3425-12 (asterisk: AAD1 positive)) it was 0%; in assay [2] (individual F1 progeny of pDAB5042 Event 186 × 3431-1), 99% (4×) and 100% (2×) and 90%; in assay [2] (individual progeny of NT6 × 3427-2) it was 90% and 100% (2×).

`CC(Oc1ccc(Oc2ncc(C(F)(F)F)cc2Cl)cc1)C(=O)O` (stereo not drawn) [haloxyfop]: in assay [3], the “non-transgenic corn callus tissue growth” value is “inhibited”.

As to `O=C(O)COc1ccc(Cl)cc1Cl` [2,4-D, 2,4-dichlorophenoxyacetic acid], in assay [4] (50 g ae/ha), the “% Injury Ave” value is given as 68.2%, the “individuals with 20-40% injury” value was determined as 2, the “individuals with <20% injury” value turned out to be 1 and the “individuals with >40% injury” value is 11. In addition, in assay [4] (200 g ae/ha), the “individuals with 20-40% injury” value came to 3, the “individuals with <20% injury” value stood at 0 and the “individuals with >40% injury” value worked out at 11. Also, in assay [4] (800 g ae/ha), the “% Injury Ave” value is recorded as 99.8%, the “individuals with 20-40% injury” value was determined as 0, the “individuals with <20% injury” value is 0 and the “individuals with >40% injury” value amounted to 14. Besides, the “response of control plants” value in assay [5] was “died”.

Source of the values: patent US10450549B2, “Aryloxyphenoxypropionate tolerance in turfrgass species and use of AAD1 as a selectable marker” (Dow AgroSciences, LLC, priority 2004, dated 2019).
